pIC50: −log10 of the molar value. Some results are limits rather than exact numbers.

The assay relates to microfilariae of Dirofilaria immitis. The assay can be described thus: Dirofilaria immitis, Microfilaria (DiMF) Assay. It counts as cell-based. The following applies: read-out: D. immitis activity level (IC50 or MED). Put shortly:
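D. immitis microfilariae were incubated in medium with DMSO-diluted compounds for about 72 h. Survival or paralysis was scored subjectively under the microscope. Values are Minimum Effective Dose (MED).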
For `CC(=O)N(C)c1cccnc1Nc1nc(-c2cc(C(C)C)ccn2)ns1` [Compound 216, N-(2-(3-(4-iso-propylpyridin-2-yl)-1,2,4-thiadiazol-5-ylamino)pyridin-3-yl)-N-methyl-acetamide], the pIC50 was 6.30 to 6.70.

For `CC(C)c1ccnc(-c2nsc(Nc3ncccc3N(C)C(=O)C3CC3)n2)c1` [Compound 217, N-(2-(3-(4-isopropylpyridin-2-yl)-1,2,4-thiadiazol-5-ylamino)pyridin-3-yl)-N-methylcyclo-propanecarbox-amide], the pIC50 is 5.30 to 6.30.

With `CC(C)Oc1cnc(-c2nsc(Nc3ncccc3C(F)(F)F)n2)cc1C(=O)N(C)C` [Compound 218, 5-isopropoxy-N,N-dimethyl-2-(5-(3-(trifluoromethyl)pyridin-2-ylamino)-1,2,4-thiadiazol-3-yl)isonico-tinamide], the pIC50 was 5.30 to 6.30.

With `CC(C)Oc1cnc(-c2nsc(Nc3ncc(C(C)C)cc3C(F)(F)F)n2)cc1C(=O)N(C)C` [Compound 219, 5-isopropoxy-2-(5-(5-isopropyl-3-(trifluoromethyl)pyridin-2-ylamino)-1,2,4-thiadiazol-3-yl)-N,N-dimethyliso-nicotinamide], the pIC50 was 6.30 to 6.70.

Turning to `CC(C)Oc1cnc(-c2nsc(Nc3ncccc3C(F)(F)F)n2)cc1C(N)=O` [Compound 220, 5-isopropoxy-2-(5-(3-(trifluoromethyl)pyridin-2-ylamino)-1,2,4-thiadiazol-3-yl)isonico-tinamide], the pIC50 was 5.30 to 6.30.

For `CC(C)Oc1cnc(-c2nsc(Nc3ncc(C(C)C)cc3C(F)(F)F)n2)cc1C(N)=O` [Compound 221, 5-isopropoxy-2-(5-(5-isopropyl-3-(trifluoromethyl)pyridin-2-ylamino)-1,2,4-thiadiazol-3-yl)iso-nicotinamide], the pIC50 is 6.30 to 6.70.

Turning to `CC(=O)N(C)c1cccnc1Nc1nc(-c2cc(C(C)C)c(C)cn2)ns1` [Compound 223, N-(2-(3-(4-isopropyl-5-methylpyridin-2-yl)-1,2,4-thiadiazol-5-ylamino)pyridin-3-yl)-N-methyl-acetamide], the pIC50 is 6.30 to 6.70.

Take `CCOc1cnc(-c2nsc(Nc3ncccc3N(C)C(C)=O)n2)cc1C(F)(F)F` [Compound 228, N-(2-(3-(5-ethoxy-4-(trifluoro-methyl)pyridin-2-yl)-1,2,4-thiadiazol-5-ylamino)pyridin-3-yl)-N-methyl-acetamide]: the pIC50 was 5.30 to 6.30.

As to `Cc1cc(C#N)cnc1Nc1nc(-c2ccc(OC(C)C)cn2)ns1` [Compound 231, 6-(3-(5-isoprop-oxypyridin-2-yl)-1,2,4-thiadiazol-5-ylamino)-5-methyl-nicotinonitrile], the pIC50 was 6.30 to 6.70.

On to `c1ccc(-c2ccnc(Nc3nc(-c4ccccn4)ns3)c2)cc1` [Compound 237, N-(4-phenyl-pyridin-2-yl)-3-(pyridin-2-yl)-1,2,4-thiadiazol-5-amine], for which the pIC50 was 6.30 to 6.70.

With `Cc1ccnc(Nc2nc(-c3ncccc3C)ns2)c1` [Compound 238, 3-(3-methyl-pyridin-2-yl)-N-(4-methyl-pyridin-2-yl)-1,2,4-thiadiazol-5-amine], the pIC50 was 6.30 to 6.70.

Consider `c1ccc(-c2ccnc(Nc3nnc(-c4ccccn4)[nH]3)c2)cc1` [Compound 241, 4-phenyl-N-(5-(pyridin-2-yl)-4H-1,2,4-triazol-3-yl) pyridin-2-amine], for which the pIC50 was 6.30 to 6.70.

Turning to `Cc1ccnc(Nc2nnc(-c3ncccc3C)[nH]2)c1` [Compound 242, 4-methyl-N-(5-(3-methyl-pyridin-2-yl)-4H-1,2,4-triazol-3-yl)pyridin-2-amine], the pIC50 was 6.30 to 6.70.

With `c1ccc(-c2ccnc(Nc3nc(-c4ccccn4)no3)c2)cc1` [Compound 246, N-(4-phenyl-pyridin-2-yl)-3-(pyridin-2-yl)-1,2,4-oxadiazol-5-amine], the pIC50 is 5.30 to 6.30.

`CC(=O)N(C)c1cc(C(F)(F)F)cnc1Nc1nc(-c2ccc(OC(C)C)cn2)ns1` [Compound 247, N-(2-(3-(5-isopropoxy-pyridin-2-yl)-1,2,4-thiadiazol-5-ylamino)-5-(trifluoro-methyl)pyridin-3-yl)-N-methylacetamide]: the pIC50 is more than 6.70.

For `CC(C)Oc1ccc(-c2nsc(Nc3ncc(C(F)(F)F)cc3N(C)C(=O)C3CC3)n2)nc1` [Compound 248, N-(2-(3-(5-isopropoxy-pyridin-2-yl)-1,2,4-thiadiazol-5-ylamino)-5-(trifluoro-methyl)pyridin-3-yl)-N-methylcyclo-propanecarbox-amide], the pIC50 was more than 6.70.

For `CC(=O)N(C)c1cc(C(F)(F)F)cnc1Nc1nc(-c2cc3c(cn2)N(C)CC3)ns1` [Compound 249, N-methyl-N-(2-(3-(1-methyl-2,3-dihydro-1H-pyrrolo[2,3-c]pyridin-5-yl)-1,2,4-thiadiazol-5-ylamino)-5-(trifluoromethyl)pyridin-3-yl)acetamide], the negative logarithm of the IC50 (pIC50) is more than 6.70.

Consider `CC(C)Oc1cnc(-c2nsc(Nc3ncccc3C(=O)N3CCCC3)n2)cc1C(F)(F)F` [Compound 251, (2-(3-(5-isopropoxy-4-(trifluoromethyl)pyridin-2-yl)-1,2,4-thiadiazol-5-ylamino)pyridin-3-yl) (pyrrolidin-1-yl)methanone], for which the pIC50 is 5.30 to 6.30.

`Cc1cnc(Nc2nc(-c3cc(C(N)=O)c(OC(C)C)cn3)ns2)c(C(F)(F)F)c1` [Compound 252, 5-isopropoxy-2-(5-(5-methyl-3-(trifluoro-methyl)pyridin-2-ylamino)-1,2,4-thiadiazol-3-yl)isonico-tinamide]: the pIC50 was 5.30 to 6.30.

For `COc1cnc(Nc2nc(-c3cc(C(N)=O)c(OC(C)C)cn3)ns2)c(C(F)(F)F)c1` [Compound 253, 5-isopropoxy-2-(5-(5-methoxy-3-(trifluoro-methyl)pyridin-2-ylamino)-1,2,4-thiadiazol-3-yl)isonico-tinamide], the pIC50 is 5.30 to 6.30.

In the case of `Cc1cnc(Nc2nc(-c3cc(C(=O)N(C)C)c(OC(C)C)cn3)ns2)c(C(F)(F)F)c1` [Compound 254, 5-isopropoxy-N,N-dimethyl-2-(5-(5-methyl-3-(trifluoromethyl)pyridin-2-ylamino)-1,2,4-thiadiazol-3-yl)isonico-tinamide], the pIC50 was 5.30 to 6.30.

Regarding `COc1ccc(-c2nnc(Nc3cc(OC(C)C)ccn3)[nH]2)nc1` [Compound 257, 4-isopropoxy-N-(5-(5-methoxy-pyridin-2-yl)-4H-1,2,4-triazol-3-yl)pyridin-2-amine], the pIC50 was 5.30 to 6.30.

With `CC(C)Oc1cnc(-c2nsc(Nc3ncccc3C(=O)N(C)C)n2)cc1C(F)F` [Compound 260, 2-(3-(4-(difluoro-methyl)-5-isopropoxy-pyridin-2-yl)-1,2,4-thiadiazol-5-ylamino)-N,N-dimethyl-nicotinamide], the pIC50 is 6.30 to 6.70.

Consider `CC(=O)N(C)c1cccnc1Nc1nc(-c2cc(C(F)F)c(OC(C)C)cn2)ns1` [Compound 261, N-(2-(3-(4-(difluoromethyl)-5-isopropoxy-pyridin-2-yl)-1,2,4-thiadiazol-5-ylamino)pyridin-3-yl)-N-methylacetamide], for which the negative-log IC50 (pIC50) was 6.30 to 6.70.

With `CC(C)Oc1ccc(-c2nsc(Nc3ncccc3C(=O)N(C)C3CC3)n2)nc1` [Compound 262, N-cyclo-propyl-2-(3-(5-isopropoxy-pyridin-2-yl)-1,2,4-thiadiazol-5-ylamino)-N-methyl-nicotinamide], the pIC50 was 6.30 to 6.70.

On to `CC(C)Oc1cnc(-c2nsc(Nc3ncccc3C(=O)N(C)C3CC3)n2)cc1C(F)(F)F` [Compound 263, N-cyclo-propyl-2-(3-(5-isopropoxy-4-(trifluoro-methyl)pyridin-2-yl)-1,2,4-thiadiazol-5-ylamino)-N-methyl-nicotinamide], for which the pIC50 was more than 6.70.

Regarding `COc1cnc(Nc2nc(-c3cc(C(=O)N(C)C)c(OC(C)C)cn3)ns2)c(C(F)(F)F)c1` [Compound 264, 5-isopropoxy-2-(5-(5-methoxy-3-(trifluoro-methyl)pyridin-2-ylamino)-1,2,4-thiadiazol-3-yl)-N,N-dimethyliso-nicotinamide], the pIC50 was 6.30 to 6.70.

For the compound `Cc1cccnc1Nc1nc(-c2ccc(OC3CCN(C(=O)C(C)C)CC3)cn2)ns1` [Compound 265, 2-methyl-1-(4-(6-(5-(3-methylpyridin-2-ylamino)-1,2,4-thiadiazol-3-yl)pyridin-3-yloxy)piperidin-1-yl)propan-1-one], the pIC50 is 5.30 to 6.30.

In the case of `CC(=O)N1CCC(Oc2ccc(-c3nsc(Nc4ncccc4C)n3)nc2)CC1` [Compound 266, 1-(4-(6-(5-(3-methyl-pyridin-2-ylamino)-1,2,4-thiadiazol-3-yl)pyridin-3-yloxy)piperidin-1-yl)ethanone], the pIC50 is 5.30 to 6.30.

In the case of `CC(=O)N1CCc2cc(-c3nsc(Nc4ncccc4C(F)(F)F)n3)ncc21` [Compound 267, 1-(5-(5-(3-(trifluoromethyl)pyridin-2-ylamino)-1,2,4-thiadiazol-3-yl)-2,3-dihydro-1H-pyrrolo[2,3-c]pyridin-1-yl)ethanone], the pIC50 is 6.30 to 6.70.

In the case of `CC(=O)N(C)c1cc(C(F)(F)F)cnc1Nc1nc(-c2cc(C(F)(F)F)c(OC(C)C)cn2)ns1` [Compound 268, N-(2-(3-(5-isopropoxy-4-(trifluoromethyl)pyridin-2-yl)-1,2,4-thiadiazol-5-ylamino)-5-(trifluoromethyl)pyridin-3-yl)-N-methylacetamide], the negative-log IC50 (pIC50) was more than 6.70.

For the compound `CC(=O)N(C)c1ccc(-c2nsc(Nc3ncccc3C)n2)nc1` [Compound 269, N-methyl-N-(6-(5-(3-methylpyridin-2-ylamino)-1,2,4-thiadiazol-3-yl)pyridin-3-yl)acetamide], the pIC50 is 5.30 to 6.30.

In the case of `CC(=O)N(C)c1cccnc1Nc1nc(-c2cc3c(cn2)OC(C)(C)C3)ns1` [Compound 271, N-(2-(3-(2,2-dimethyl-2,3-dihydrofuro [2,3-c]pyridin-5-yl)-1,2,4-thiadiazol-5-ylamino)pyridin-3-yl)-N-methylacetamide], the pIC50 was 5.30 to 6.30.

As for `CC(=O)N(C)c1cc(C(F)(F)F)cnc1Nc1nc(-c2cc3c(cn2)OC(C)(C)C3)ns1` [Compound 272, N-(2-(3-(2,2-dimethyl-2,3-dihydrofuro [2,3-c]pyridin-5-yl)-1,2,4-thiadiazol-5-ylamino)-5-(trifluoromethyl)pyridin-3-yl)-N-methylacetamide], the pIC50 was more than 6.70.

The record behind these values is patent US11505548B2, “Heterocyclic compounds and their use for treatment of helminthic infections and diseases” (Celgene Corporation, priority 2019, dated 2022).
